Tests used:
Type in all cases: cell-based
Details in all cases: hepg2, 24 h
HepG2 [1] = experiment: Cytotoxicity against human HepG2 cells assessed as reduction in cell viability at 0.1 to 100 uM after 24 hrs by Neutral red uptake assay
HepG2 [2] = experiment: Cytotoxicity against human HepG2 cells assessed as disruption of membrane integrity up to 100 uM after 24 hrs by LDH release assay
HepG2 [3] = experiment: Cytotoxicity against human HepG2 cells assessed as NBD-PC phospholipid accumulation at 0.1 to 100 uM after 24 hrs by Hoechst 33342 normalization-based fluorescence assay
HepG2 [4] = experiment: Cytotoxicity against human HepG2 cells assessed as increase in lysosomal beta-hexosaminidase level at 50 to 100 uM after 24 hrs by MUG-based fluorescence assay
HepG2 [5] = experiment: Cytotoxicity against human HepG2 cells assessed as formation of lysosomal inclusion bodies at 50 uM after 24 hrs by transmission electron microscopy
HepG2 [6] = experiment: Cytotoxicity against human HepG2 cells assessed as reduction in cell viability after 24 hrs by Neutral red uptake assay
HepG2 [7] = experiment: Cytotoxicity against human HepG2 cells assessed as disruption of membrane integrity at >= 50 uM after 24 hrs by LDH release assay
HepG2 [8] = experiment: Cytotoxicity against human HepG2 cells assessed as NBD-PC phospholipid accumulation after 24 hrs by Hoechst 33342 normalization-based fluorescence assay
HepG2 [9] = experiment: Cytotoxicity against human HepG2 cells at 100 uM after 24 hrs by Hoechst 33342 staining-based fluorescence assay
HepG2 [10] = experiment: Cytotoxicity against human HepG2 cells assessed as reduction in cell viability at >/= 50 uM after 24 hrs by Neutral red uptake assay
HepG2 [11] = experiment: Cytotoxicity against human HepG2 cells assessed as increase in lysosomal beta-hexosaminidase level at 20 uM after 24 hrs by MUG-based fluorescence assay
HepG2 [12] = experiment: Cytotoxicity against human HepG2 cells assessed as increase in lysosomal beta-hexosaminidase level at 35 uM after 24 hrs by MUG-based fluorescence assay
HepG2 [13] = experiment: Cytotoxicity against human HepG2 cells assessed as disruption of membrane integrity at 20 uM after 24 hrs by LDH release assay
HepG2 [14] = experiment: Cytotoxicity against human HepG2 cells assessed as disruption of membrane integrity at 35 uM after 24 hrs by LDH release assay
HepG2 [15] = experiment: Cytotoxicity against human HepG2 cells assessed as reduction in cell viability at 100 uM after 24 hrs by Neutral red uptake assay
HepG2 [16] = experiment: Cytotoxicity against human HepG2 cells assessed as increase in lysosomal beta-hexosaminidase level at 10 to 100 uM after 24 hrs by MUG-based fluorescence assay

SMILES	Activity (HepG2 [1])	Activity (HepG2 [2])	Activity (HepG2 [3])	Activity (HepG2 [5])	Activity (HepG2 [8])	Activity (HepG2 [9])	other results
CN/C(=N/CCSCc1nc[nH]c1C)NC#N [CIMETIDINE]	Non-toxic	Non-toxic	Non-toxic	–	–	–	–
CC1=NN(C(=O)c2nn(C)cc2[N+](=O)[O-])C(O)(C(F)(F)F)C1 (stereo unspecified)	Non-toxic	Non-toxic	Non-toxic	–	–	–	–
CCN(CC)CCNC1=Nc2ccccc2CCC1	–	–	Non-toxic	Toxic	–	–	Activity (HepG2 [4]): Toxic
COc1ccc(CNCC(O)c2nnn(C)n2)cc1OC (stereo unspecified)	Non-toxic	Non-toxic	Toxic	Toxic	–	–	–
CCCCc1oc2ccccc2c1C(=O)c1cc(I)c(OCCN(CC)CC)c(I)c1 [AMIODARONE]	–	–	–	–	Dose-dependent effect	Toxic	Activity (HepG2 [6]): Dose-dependent effect; Activity (HepG2 [7]): Toxic; Activity (HepG2 [4]): Toxic
Clc1ccccc1CNC1CN2CCC1CC2 (stereo unspecified)	–	–	Non-toxic	–	–	–	–
Cc1cccc(C)c1C(OCCN(C)C)C1CCCCC1 (stereo unspecified)	–	–	–	Toxic	Dose-dependent effect	Toxic	Activity (HepG2 [6]): Dose-dependent effect; Activity (HepG2 [10]): Toxic; Activity (HepG2 [7]): Toxic; Activity (HepG2 [4]): Toxic; Activity (HepG2 [11]): Toxic; Activity (HepG2 [12]): Toxic; Activity (HepG2 [13]): Non-toxic; Activity (HepG2 [14]): Non-toxic
C1CN(CCN2CCOCC2)CCO1	Non-toxic	Non-toxic	Non-toxic	–	–	–	–
CCN(CC)CCNCc1c(OC)ccc2ccccc12	–	–	–	Toxic	Dose-dependent effect	Non-toxic	Activity (HepG2 [15]): Non-toxic; Activity (HepG2 [16]): Toxic
CCOc1ccc(Br)cc1CNCC1CCNCC1	–	–	–	Toxic	Dose-dependent effect	Toxic	Activity (HepG2 [6]): Dose-dependent effect; Activity (HepG2 [10]): Toxic; Activity (HepG2 [7]): Toxic; Activity (HepG2 [16]): Toxic
c1cc(C[N+]23CN4CN(CN(C4)C2)C3)cs1	Non-toxic	Non-toxic	Non-toxic	–	–	–	–
OC(CN1CCOCC1)c1csc2ccccc12 (stereo unspecified)	Non-toxic	Non-toxic	Non-toxic	–	–	–	–
